Data taken from paper PMC12424289, “Programmable Nanostructure Assembly of a Paclitaxel Derivative Enables Tunable Anticancer Therapy via Hydrogen Bond Engineering” (ACS Nano, 2025).

Experiments:
[1] = system: tubulin; assay: Isothermal titration calorimetry with tubulin; assay type: binding; settings: tubulin 180 μM titrated into 25 μM compound
Experimental: ITC experiments were performed using a Nano-ITC (TA Instruments, USA) with all samples degassed for 8 min prior to measurement. Experiments were conducted under stirring at 350 rpm. To account for background signals, control experiments were conducted and subtracted from the test data. The resulting heat values were analyzed using an independent model to extract thermodynamic parameters. For tubulin binding studies, solutions were prepared in PEM buffer containing 5% (v/v) DMSO. In each experiment, 400 μL of the […] was loaded into the sample cell, and 400 μL of PEM buffer with 5% (v/v) DMSO was placed in the reference cell. Tubulin solution (180 μM) was titrated into the sample cell in 25 injections of 2 μL each at 4 °C. A control titration of tubulin into PEM buffer (5% DMSO) was performed to account for dilution effects. To assess interactions between PTP and excipients, PTP dispersions (25 μM) were loaded into the sample cell, and water was used in the reference cell. PEG400 solution (6.0 mg·mL^–1) was titrated into a 2.0 mg·mL^–1 PTP dispersion, and HA (2.7 mg·mL^–1) into a 1.0 mg·mL^–1 PTP dispersion. Both titrations were performed at 25 °C with 25 injections of 2 μL each. Control experiments were performed by titrating PEG400 or HA into water to correct for nonspecific heat effects.

[2] = Solid-state storage stability of PTP; assay type: physicochemical; settings: stored at −20 °C for 6 months; initial purity 98.5%
Experimental: For solid-state stability, 5.0 mg PTP was sealed in glass bottles and stored under controlled conditions in stability chambers (MMM Climacell-E, Germany). The samples were stored at 40 ± 2 °C and 75 ± 5% relative humidity, and 25 ± 2 °C and 60 ± 5% RH. Additional samples were stored at 4 °C and −20 °C in a refrigerator (BCD-610W, Siemens, Germany). At scheduled intervals, triplicate samples from each condition were analyzed for purity by HPLC.

[3] = system: mouse breast 4T1 cells; assay: CCK8 antiproliferation assay, 4T1; assay type: cell-based; settings: 4T1, 48 h treatment
Experimental: The mouse breast cancer cell line 4T1 and the human ovarian cancer cell line SKOV3 were cultured in RPMI 1640 medium supplemented with 10% fetal bovine serum, 100 units·mL^–1 penicillin, and 100 μg·mL^–1 streptomycin. The human lung cancer cell line A549 and the luciferase-expressing human colorectal carcinoma cell line HCT116-Luc were cultured in high-glucose DMEM medium supplemented with 10% fetal bovine serum, 100 units·mL^–1 penicillin, and 100 μg·mL^–1 streptomycin. All cell lines were maintained at 37 °C in a Steri-Cycle 371 incubator (Thermo Scientific, USA) with a humidified atmosphere of 5% CO2. Only cells between passages 5 and 15 were used for cell-based experiments.
The antiproliferative activity of PTP was evaluated using the Cell Counting Kit-8 (CCK8) assay. PTX solution served as a positive control. Cell suspensions were prepared at a density of 3 × 10^4 cells·mL^–1 and seeded in 96-well plates at a volume of 100 μL per well. The plates were incubated for 24 h to allow cell attachment and growth. Subsequently, the culture media were replaced with fresh media containing varying concentrations of PTX or PTP solutions (100 μL per well), and the cells were incubated for an additional 48 h (n = 3). Control wells received fresh culture media alone (n = 3). […] Finally, the absorbance was measured at 450 nm using a microplate reader (Synergy H1, BioTek, USA). […]

[4] = In vitro PTP release (transwell, PBS); assay type: physicochemical; settings: over 12 h, 5.0 mg·mL^–1 PTP
Experimental: The in vitro drug release from the PTP assemblies and PTP@HA was assessed in 1 × PBS (pH 7.4). A 0.1 mL dispersion of PTP (5.0 mg·mL^–1) or PTP@HA (equivalent to 5.0 mg·mL^–1 PTP and 20.0 mg·mL^–1 HA) in saline was added to the upper chamber of a 24-well transwell plate (#3413, Corning, USA) equipped with a 0.4 μm polycarbonate membrane (n = 3). The lower chamber contained 0.6 mL 1 × PBS. The setup was maintained at 37 °C with shaking at 100 rpm. At specified time intervals, the PBS in the lower chamber was replaced with fresh PBS. Each collected sample was mixed with 600 μL acetonitrile and vortexed for 1 min. PTP release and PTX degradation products were quantified by HPLC.

[5] = Degradation of PTP assemblies in aqueous solution (HPLC); assay type: physicochemical; settings: 37 °C
Experimental: PTP, PTP@PEG, and PTP@HA (200 μL, 0.1 mg·mL^–1) solutions were sealed in ampules and incubated at 37 °C with agitation at 100 rpm. Samples were collected in triplicate at scheduled intervals, treated with acetonitrile, vortexed for 1 min, and analyzed using HPLC. Degradation rate constants (k) were calculated by plotting the natural logarithm of the concentration ratio (ln c/c0) versus time, with the slopes of the linear regression plots representing the rate constants.

[6] = system: Balb/c mice; assay: Maximum tolerated dose / survival in mice; assay type: in vivo, mouse; settings: iv, PTP 100 mg·kg^–1, 14 days
[7] = Surface tension measurement / critical aggregation concentration; assay type: physicochemical
Experimental: Surface tension measurements were conducted at 25 °C using a drop shape analyzer (DSA30S; Kruss, Germany). Starting with a 5.0 mg·mL^–1 PTP dispersion, serial dilutions were prepared to obtain a range of lower concentrations. Following overnight assembly, the PTP dispersion was drawn into a syringe (HENKE-JECT, Germany), and a droplet was suspended from the needle tip. The outer diameter of the needle (1.825 mm) served as the reference for image analysis. Images of the droplet were captured, and the surface tension was calculated using the Young–Laplace equation based on the droplet’s shape.

[8] = Serum biochemistry safety assessment; assay type: in vivo, Balb/c mice; settings: mice, iv 10 mg·kg^–1 PTX equivalent, q.o.d. × 5, day 10; PTP versus PTP@PEG
Experimental: In a related safety assessment, female Balb/c mice (18–22 g, n = 3) were fasted for 12 h, then treated intravenously with either 5% G, PTX solution, PTP, or PTP@PEG using the previously described dosing regimen (10 mg·kg^–1 PTX equivalent, q.o.d. × 5). On day 10, blood was collected and then processed to obtain serum by centrifugation (2000 rpm, 10 min, 4 °C). Serum samples were subsequently analyzed for biochemical markers using a Chemray 240 automated analyzer (Rayto Life and Analytical Sciences Co., Ltd., China).

What does the source list for `CC(=O)O[C@H]1C(=O)[C@@]2(C)[C@H]([C@H](OC(=O)c3ccccc3)[C@]3(O)C[C@H](OC(=O)[C@H](OC(=O)CCP(=O)(O)O)[C@@H](NC(=O)c4ccccc4)c4ccccc4)C(C)=C1C3(C)C)[C@]1(OC(C)=O)CO[C@@H]1C[C@@H]2O` [PTP, PTX-2’–OOC-P]?
molar ratio of tubulin to compound ([1]; ITC): 1.6; Gibbs free energy change (ΔG) ([1]; 5% DMSO, 4 °C): −26.8 kJ·mol^–1; purity after storage [2]: 98.1%; IC50 [3]: 82.4 nM; total release of PTP ([4]; PBS pH 7.4, 37 °C): 40.6%; average release rate ([4]; PBS pH 7.4, 37 °C (data not shown)): 17.5 μg·h^–1; degradation rate constant (k) ([5]; 0.1 mg·mL^–1 in 5% glucose (5% G)): 2.3 × 10^–2 day^–1; degradation rate constant (k) ([5]; 0.1 mg·mL^–1 in phosphate buffer saline (PBS)): 1.3 day^–1; degradation rate constant (k) ([5]; 0.1 mg·mL^–1 in saline): 3.2 × 10^–2 day^–1; degradation rate constant (k) ([5]; 0.1 mg·mL^–1 in water): 8.0 × 10^–2 day^–1; fatalities [6]: No fatalities; water–air surface tension (plateau) ([7]; above 1.0 mg·mL^–1): approximately 55.0 mN·m^–1; critical aggregation concentration ([7]; water, 25 °C, inflection of surface tension versus log concentration): 0.6 mg·mL^–1; blood urea nitrogen (BUN) and creatinine (CREA) levels [8]: comparable
